Reference: patent US20260265304A1, “PEPTIDE INHIBITORS OF FOCAL ADHESION KINASE ACTIVITY AND USES THEREOF” (Arizona Board of Regents on Behalf of the University of …, priority 2019, published 2026)
pIC50, pKd: −log10 of the molar value.

Experiments:
[1] = system: SK-MEL-103 melanoma cells; assay: 3D Matrigel-on-top proliferation assay; type: cell-based; details: SK-MEL-103 melanoma cells, 3D Matrigel-on-top
Protocol: B. Competition FP experiment with 1907 showing inhibition of TAMRA-LD2 binding to FAT. C. SPR binding and selectivity analysis using WT FAT and Mutant FAT (L994E, 1936A) at the helix-protein interface. D. Flow cytometry analysis of Rhodamine-1907 (10 μM) cellular uptake in MDA-MB-453 breast cancer cells. E. Boyden-chamber invasion assays in SK-MEL-103 melanoma cells. F. 3D Matrigel-on-top proliferation assays in SK-MEL-103 melanoma cells.
(§1) B. 3D structure of negative control molecule (UACC-2020). C. 3D Matrigel-on-top cell proliferation data of stapled peptides in SK-MEL-103 melanoma cells.
(§2) A negative control myristoylated peptide (2020) was designed and synthesized based on non-active molecule 2014. Experiments were conducted to test the efficacy of these peptides in 3D proliferation assays using SK-MEL-103 melanoma cells. […] Furthermore, 2012 had no effects on the proliferation of normal HUVEC cells (IC50=NA) (FIG. 7).

[2] = target: T1, FAK FAT domain (biotinylated Avitag-FAT protein) (Homo sapiens, UniProt Q05397); assay: Surface plasmon resonance (SPR) binding to immobilised FAT protein; details: FAT protein immobilised, peptide 200 μM-0.01 μM, 1:1 binding model; read-out: SPR KD
T1 construct: biotinylated Avitag-FAT protein was diluted in running buffer
T1 sequence (Q05397 914-1045 limits assumed): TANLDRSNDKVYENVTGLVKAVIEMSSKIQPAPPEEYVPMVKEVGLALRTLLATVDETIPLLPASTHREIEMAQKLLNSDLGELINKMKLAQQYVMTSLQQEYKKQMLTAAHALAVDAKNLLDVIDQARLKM

trypsin = target: T2, trypsin (Bos taurus, UniProt P00760); assay: In vitro trypsin digest assay (trypsin-agarose beads, LC-MS); type: in vitro ADME; details: trypsin-agarose beads in physiological buffer, read-out: t1/2 in trypsin digest (protease resistance) (converted)
T2 construct: purchased ThermoFisher
T2 sequence (P00760 24-246): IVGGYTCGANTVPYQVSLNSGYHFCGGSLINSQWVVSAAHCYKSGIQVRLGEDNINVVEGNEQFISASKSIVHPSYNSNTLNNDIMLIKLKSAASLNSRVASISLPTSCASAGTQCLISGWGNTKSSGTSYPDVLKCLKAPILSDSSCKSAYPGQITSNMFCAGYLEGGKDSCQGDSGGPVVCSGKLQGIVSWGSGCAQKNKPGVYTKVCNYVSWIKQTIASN
Protocol: Assays were performed using trypsin-agarose beads (ThermoFisher) and measurement of peptide concentration using LC-MS. Peptide half-lives were calculated using GraphPad Prism software.
Trypsin-agarose beads were used to test the potential cleavage of peptides in a physiological buffer and LC-MS was used as the analytical method to determine peptide concentration.

HUVEC cells = assay: 3D Matrigel-on-top proliferation assay in normal cells; type: cell-based
Protocol: as §1, §2

[3] = system: LX2 human liver stellate cells; assay: Anti-fibrotic activity in TGF-β-induced stellate cells (Western blot, morphology); type: cell-based
Protocol: A. Western blot studies of LX2 cells treated with 2 ng/ml TGF-β for 17 h to induce pro-fibrotic phenotypes. […] Quantification of fibronectin results are shown in the lower panel. B. Morphological changes of LX2 cells after TGF-β and peptide treatment for 17 h. Images were captured using bright field microscopy.
Experiments were conducted to test the anti-fibrotic effects of stapled peptides targeting the FAK FAT domain (FIG. 13). TGF-β induction was performed in LX-2 human liver stellate cells to promote a pro-fibrotic phenotypic and differentiation to myofibroblast-like cells.

CCCCCCCCCCCCCC(=O)N[C@@H](CC(N)=O)C(=O)N[C@@H](CC(C)C)C(=O)N[C@]1(C)CCCCCCC=CCCC[C@@](C)(C(=O)N[C@@H](CCC(=O)O)C(=O)N[C@@H](CC(C)C)C(=O)N[C@@H](CC(N)=O)C(N)=O)NC(=O)[C@H](CC(C)C)NC(=O)[C@H](CC(C)C)NC(=O)[C@H](CCCNC(=N)N)NC(=O)[C@H](CC(=O)O)NC(=O)[C@H](CC(C)C)NC(=O)[C@H](CCC(=O)O)NC1=O [Peptide 2012, Myristoyl-NLR8ELDRLLS5ELN-NH2]
pIC50 [1]: 5.26 | pKd [2]: < 3.70 | half-life (trypsin): > 48 h | 3D proliferation IC50 (HUVEC cells): no effects | TGF-β-induced expression of fibronectin ([3]; LX2 cells, 2 ng/ml TGF-β 17 h, peptide 10, 5, 2 μM pretreated 1 h): reduced the TGF-β-induced expression of fibronectin, a marker of fibrosis, in a dose-dependent manner | morphological change of TGF-β-induced cells ([3]; LX-2 cells, TGF-β and peptide treatment 17 h, bright field microscopy): induced a morphological change
